Laboratory results from patent US20130324543A1, “REVERSAL OF HIGH BREAST CANCER RISK IN MAMMALS EXPOSED TO ESTROGENIC CHEMICALS IN UTERO BY ADULT EXPOSURE TO HDAC AND DNMT INHIBITORS” (Georgetown University, priority 2012, published 2013).
“Also recorded” adds a separate entry of the source.

How the values were obtained:
[1] = Puberty onset (vaginal opening) of female mice exposed in utero; type: in vivo, C57BL/6 mice
Protocol: To assess possible changes in sexual maturation due to in utero ECD exposures during embryogenesis, the day of puberty onset was recorded, as defined based on vaginal opening (VO) in female mice. The mice were examined once a day starting on PND 21. In sexually mature mice, the stage of estrus cycle was determined based on the cytology of their vaginal smear (sampled by pipetting 20 μl PBS in and out of vagina onto a slide) as judged under the microscope. Stage of estrus cycle was determined for each mouse before necropsy and sample collection.

[2] = system: mammary tumors; experiment: DMBA-induced mammary tumorigenesis in F1-F3 offspring of rat dams fed HF or EE2 diet; type: in vivo, Sprague-Dawley rats
Protocol: Pregnant Sprague-Dawley rats (F0) were fed AI[…] control diet or an isocaloric AI[…] based HF diet, containing 43% energy from corn oil, throughout gestation. Another group of pregnant rats was fed AI[…] diet supplemented with 0.1 ppm ethinyl estradiol (EE2) from day 14 to day 20 of pregnancy. F1 females were mated with F1 males from the same group to produce the F2 generation. The F3 generation was produced in the same manner (FIG. 23). No sibling mating was carried out. […] AI[…] control diet (control, 17% energy from corn oil), isocaloric high fat diet (HF, 43% energy from corn oil) or ethinyl estradiol-supplemented AI[…] diet (EE2, 0.1 ppm). The HF diet was fed for dams through the duration of pregnancy (P) (21 days), while dams were fed EE2 supplemented diet between days P14-20. Once pups (F1) were born, all dams received the control diet. F1 and F2 females (n=8-10) were mated on PND 60 with males from the same group to produce the F2 and F3 generations. All F1 and F2 pregnant dams were fed control diet for the extent of pregnancy. Outcross experiments were also performed: F1 females or males exposed to EE2 or HF diet in utero were crossed with control males or females. […] Tumorigenesis (incidence and multiplicity) was monitored for 20 weeks. […] Louis, Mo.) in 1 ml of peanut oil. […] Tumor growth was measured using a caliper and the length, width, and height of each tumor were recorded. […] Differences in tumor latency and multiplicity were tested by t-test (or Mann-Whitney Rank Sum test) or one-way ANOVA (where appropriate, between groups comparisons after ANOVA were done using Dunn's multi-comparison procedure). Kaplan-Meier survival curves were used to compare differences in tumor incidence, followed by the log-rank test Tumor histopathology was analyzed.

[3] = system: mammary gland; experiment: Number of terminal end buds (TEBs) in mammary whole mounts of F1-F3 rat offspring; type: in vivo, Sprague-Dawley rats; settings: mean±s.e.m.
Protocol: Whole mounts (n=5-6 per group and age) were examined under the microscope and evaluated as described before (28) to assess the number of terminal end buds (TEBs). Results were analyzed by t-test (or Mann-Whitney Rank Sum test) or one-ANOVA (when comparing outcross groups in F2 generation). Where appropriate, between groups comparisons after ANOVA were done by Holm-Sidak multi-comparison procedure.

[4] = system: miRNAs; experiment: miRNA expression in adult mammary glands of in utero exposed rats; type: in vivo
Protocol: Since several miRNAs are known to be suppressed by E2 in MCF-7 human breast cancer cells (Maillot et al. Cancer Res 2009), we determined whether persistent changes in miRNA expression may be seen in the adult mammary glands of rats exposed to E2 in utero. miRNAs were measured using applied Biosystems TaqManR Array Rodent MicroRNA.

[5] = system: mammary tumors; experiment: Acquired tamoxifen (TAM) resistance of mammary tumors in in utero exposed rats; type: in vivo; settings: 14-week follow-up, 7% in the control group
[6] = F1 generation (daughters) vs controls
[7] = F2 generation (granddaughters) vs controls
[8] = F3 generation (great-granddaughters) vs controls
[9] = Con x EE2 outcross (F2 generation)
[10] = EE2 x Con outcross (F2 generation)
[11] = maternal EE2 diet 0.1 ppm, F1 generation
[12] = maternal EE2 diet, F2 generation
[13] = maternal EE2 diet, F3 generation

SMILES: C#C[C@]1(O)CC[C@H]2[C@@H]3CCc4cc(O)ccc4[C@H]3CC[C@@]21C [EE2, ethinyl estradiol]
- puberty onset / vaginal opening ([1]; female offspring, in utero exposure): significantly earlier puberty onset; also recorded: significantly accelerated
- puberty onset ([1]; female pups, instead of PND 32): 27 PND
- Mammary tumor incidence [2, 6]: higher
- mammary tumor multiplicity [2, 6]: higher
- Mammary tumor incidence [2, 7]: neither tumor incidence (p=0.68) nor multiplicity (p=0.49) was statistically different
- mammary tumor multiplicity [2, 7]: neither tumor incidence (p=0.68) nor multiplicity (p=0.49) was statistically different
- tumor multiplicity ([2]; F2 outcross EE2♀×C♂ vs controls): significantly higher
- Mammary tumor incidence ([2]; F2 outcross, control ♀ x exposed ♂): 33%
- Mammary tumor incidence ([2]; F2 outcross, exposed ♀ x control ♂): 62%
- Mammary tumor incidence [2, 8]: also higher, but not statistically significant
- mammary tumor multiplicity [2, 8]: significantly higher
- Number of TEBs PND 21 [3, 9]: 19.4 ± 1.5
- Number of TEBs PND 50 [3, 9]: 11.0 ± 1.2
- Number of TEBs PND 21 [3, 10]: 32.7 ± 3.6
- Number of TEBs PND 50 [3, 10]: 22.8 ± 1.6
- Number of TEBs PND 21 [3, 11]: 25.3 ± 1.3
- Number of TEBs PND 50 [3, 11]: 32.5 ± 2.3
- Number of TEBs PND 21 [3, 12]: 30.8 ± 1.9
- Number of TEBs PND 50 [3, 12]: 22.2 ± 3.8
- Number of TEBs PND 21 [3, 13]: 33.0 ± 2.1
- Number of TEBs PND 50 [3, 13]: 28.7 ± 3.4
- expression of miR-26a, miR-101, miR-148, miR-152, miR-194, miR-26a/b ([4]; mammary glands of rats exposed in utero): suppressed
- expression of several miRNAs in the mammary gland ([4]; maternal exposure): permanent down-regulation
- acquired resistance to TAM [5]: 50%
